What was measured:
[1] = target: Dolichyl pyrophosphate Glc1Man9GlcNAc2 alpha-1,3-glucosyltransferase (Homo sapiens) (UniProt Q9BVK2)
[2] = target: Annexin A6 (Homo sapiens) (UniProt P08133)
[3] = target: 5-azacytidine-induced protein 2 (Homo sapiens) (UniProt Q9H6S1)
[4] = target: T-complex protein 1 subunit zeta (Homo sapiens) (UniProt P40227)
[5] = target: Hsp90 co-chaperone Cdc37 (Homo sapiens) (UniProt Q16543)
[6] = target: Ceramide synthase 2 (Homo sapiens) (UniProt Q96G23)
[7] = target: Calponin-2 (Homo sapiens) (UniProt Q99439)
[8] = target: Coatomer subunit alpha (Homo sapiens) (UniProt P53621)
[9] = target: Dopamine beta-hydroxylase (Homo sapiens) (UniProt P09172)
[10] = target: 2,4-dienoyl-CoA reductase [(3E)-enoyl-CoA-producing], mitochondrial (Homo sapiens) (UniProt Q16698)
[11] = target: Elongation factor 1-delta (Homo sapiens) (UniProt P29692)
[12] = target: Alpha-enolase (Homo sapiens) (UniProt P06733)
[13] = target: Glutaryl-CoA dehydrogenase, mitochondrial (Homo sapiens) (UniProt Q92947)
[14] = target: Putative heat shock protein HSP 90-beta 2 (Homo sapiens) (UniProt Q58FF8)
[15] = target: Interleukin enhancer-binding factor 2 (Homo sapiens) (UniProt Q12905)
[16] = target: Junction plakoglobin (Homo sapiens) (UniProt P14923)
[17] = target: Mitogen-activated protein kinase 10 (Homo sapiens) (UniProt P53779)
[18] = target: Small ribosomal subunit protein uS17m (Homo sapiens) (UniProt Q9Y2R5)
[19] = target: Small ribosomal subunit protein uS7m (Homo sapiens) (UniProt Q9Y2R9)
[20] = target: mRNA turnover protein 4 homolog (Homo sapiens) (UniProt Q9UKD2)
Moesin (Homo sapiens) = Moesin (Homo sapiens) (UniProt P26038)
Myosin-9 (Homo sapiens) = Myosin-9 (Homo sapiens) (UniProt P35579)
[21] = target: Myosin light chain kinase, smooth muscle (Homo sapiens) (UniProt Q15746)
[22] = target: Profilin-1 (Homo sapiens) (UniProt P07737)
[23] = target: POTE ankyrin domain family member E (Homo sapiens) (UniProt Q6S8J3)
[24] = target: 5'-AMP-activated protein kinase subunit beta-2 (Homo sapiens) (UniProt O43741)
[25] = target: Proteasome subunit alpha type-7 (Homo sapiens) (UniProt O14818)
[26] = target: 26S proteasome non-ATPase regulatory subunit 2 (Homo sapiens) (UniProt Q13200)
[27] = target: Ras association domain-containing protein 5 (Homo sapiens) (UniProt Q8WWW0)
[28] = target: Dolichyl-diphosphooligosaccharide--protein glycosyltransferase subunit 1 (Homo sapiens) (UniProt P04843)
[29] = target: Small ribosomal subunit protein uS17 (Homo sapiens) (UniProt P62280)
[30] = target: Protein salvador homolog 1 (Homo sapiens) (UniProt Q9H4B6)
[31] = target: S-phase kinase-associated protein 2 (Homo sapiens) (UniProt Q13309)
[32] = target: ADP/ATP translocase 2 (Homo sapiens) (UniProt P05141)
[33] = target: ADP/ATP translocase 3 (Homo sapiens) (UniProt P12236)
[34] = target: Large neutral amino acids transporter small subunit 1 (Homo sapiens) (UniProt Q01650)
[35] = target: Microtubule cross-linking factor 3 (Homo sapiens) (UniProt Q5TF21)
[36] = target: Translocon-associated protein subunit alpha (Homo sapiens) (UniProt P43307)
[37] = target: Serine/threonine-protein kinase 4 (Homo sapiens) (UniProt Q13043)
[38] = target: Succinate--CoA ligase [ADP-forming] subunit beta, mitochondrial (Homo sapiens) (UniProt Q9P2R7)
[39] = target: Transcription elongation regulator 1 (Homo sapiens) (UniProt O14776)
[40] = target: DNA topoisomerase 2-alpha (Homo sapiens) (UniProt P11388)
[41] = target: TNF receptor-associated factor 2 (Homo sapiens) (UniProt Q12933)
[42] = target: Tubulin alpha-1C chain (Homo sapiens) (UniProt Q9BQE3)
[43] = target: E3 ubiquitin-protein ligase UBR4 (Homo sapiens) (UniProt Q5T4S7)
[44] = target: Vesicle-associated membrane protein 8 (Homo sapiens) (UniProt Q9BV40)
Also: assay method not described here.

Succinate--CoA ligase [ADP-forming] subunit beta, mitochondrial (Homo sapiens), sequence (Q9P2R7 whole entry): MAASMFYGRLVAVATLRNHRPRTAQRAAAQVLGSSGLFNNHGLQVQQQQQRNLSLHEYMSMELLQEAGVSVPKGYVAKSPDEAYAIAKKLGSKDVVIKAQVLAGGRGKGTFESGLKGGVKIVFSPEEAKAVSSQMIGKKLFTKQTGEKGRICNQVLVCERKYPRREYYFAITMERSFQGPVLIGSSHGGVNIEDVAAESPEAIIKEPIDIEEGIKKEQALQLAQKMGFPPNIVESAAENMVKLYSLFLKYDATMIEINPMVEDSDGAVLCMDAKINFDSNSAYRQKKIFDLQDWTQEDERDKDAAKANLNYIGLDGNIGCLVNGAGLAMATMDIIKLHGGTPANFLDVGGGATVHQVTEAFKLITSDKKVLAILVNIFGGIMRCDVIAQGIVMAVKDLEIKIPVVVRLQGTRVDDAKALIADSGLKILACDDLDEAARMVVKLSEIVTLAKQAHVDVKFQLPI
Transcription elongation regulator 1 (Homo sapiens), sequence (O14776 whole entry): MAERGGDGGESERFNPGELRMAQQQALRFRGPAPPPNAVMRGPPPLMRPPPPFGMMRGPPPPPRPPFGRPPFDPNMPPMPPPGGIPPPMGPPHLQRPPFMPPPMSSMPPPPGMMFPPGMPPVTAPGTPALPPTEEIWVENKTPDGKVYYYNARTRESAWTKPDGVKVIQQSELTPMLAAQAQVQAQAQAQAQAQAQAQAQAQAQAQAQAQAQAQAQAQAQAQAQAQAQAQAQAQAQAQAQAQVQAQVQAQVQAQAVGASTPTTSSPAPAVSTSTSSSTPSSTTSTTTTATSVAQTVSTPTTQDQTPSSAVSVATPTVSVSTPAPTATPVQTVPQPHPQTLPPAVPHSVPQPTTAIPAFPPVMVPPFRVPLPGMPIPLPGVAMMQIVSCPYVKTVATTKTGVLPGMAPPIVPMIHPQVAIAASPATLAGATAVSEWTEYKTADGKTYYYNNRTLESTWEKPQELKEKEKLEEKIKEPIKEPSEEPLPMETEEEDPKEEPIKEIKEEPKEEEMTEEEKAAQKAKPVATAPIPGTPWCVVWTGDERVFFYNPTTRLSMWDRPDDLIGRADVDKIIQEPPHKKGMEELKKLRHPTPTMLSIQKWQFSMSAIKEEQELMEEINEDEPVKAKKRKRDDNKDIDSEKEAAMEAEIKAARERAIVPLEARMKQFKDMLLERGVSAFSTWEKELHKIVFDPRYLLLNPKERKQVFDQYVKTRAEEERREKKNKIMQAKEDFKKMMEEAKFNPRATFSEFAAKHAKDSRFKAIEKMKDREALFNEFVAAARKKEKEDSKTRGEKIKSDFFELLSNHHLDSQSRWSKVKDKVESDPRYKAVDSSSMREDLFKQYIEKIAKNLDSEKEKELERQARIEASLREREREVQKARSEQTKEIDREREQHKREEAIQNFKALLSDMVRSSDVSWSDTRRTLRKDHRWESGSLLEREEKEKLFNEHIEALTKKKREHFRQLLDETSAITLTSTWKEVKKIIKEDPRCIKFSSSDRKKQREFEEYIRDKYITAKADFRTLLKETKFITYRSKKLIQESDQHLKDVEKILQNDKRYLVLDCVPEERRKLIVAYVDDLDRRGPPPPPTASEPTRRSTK
Large neutral amino acids transporter small subunit 1 (Homo sapiens), sequence (Q01650 whole entry): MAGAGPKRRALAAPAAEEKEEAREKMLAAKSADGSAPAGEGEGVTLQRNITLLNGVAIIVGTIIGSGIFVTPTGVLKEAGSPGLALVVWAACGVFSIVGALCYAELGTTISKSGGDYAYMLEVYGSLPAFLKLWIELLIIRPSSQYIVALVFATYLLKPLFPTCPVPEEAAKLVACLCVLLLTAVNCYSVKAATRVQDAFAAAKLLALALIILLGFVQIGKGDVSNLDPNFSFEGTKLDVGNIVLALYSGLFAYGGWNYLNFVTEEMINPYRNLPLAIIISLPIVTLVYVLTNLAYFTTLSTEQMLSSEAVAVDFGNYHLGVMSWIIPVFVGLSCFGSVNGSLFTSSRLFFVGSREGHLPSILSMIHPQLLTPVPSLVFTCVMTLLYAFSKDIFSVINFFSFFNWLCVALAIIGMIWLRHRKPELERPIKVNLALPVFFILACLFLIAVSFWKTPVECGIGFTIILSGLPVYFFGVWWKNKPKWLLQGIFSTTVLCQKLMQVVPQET
Serine/threonine-protein kinase 4 (Homo sapiens), sequence (Q13043 whole entry): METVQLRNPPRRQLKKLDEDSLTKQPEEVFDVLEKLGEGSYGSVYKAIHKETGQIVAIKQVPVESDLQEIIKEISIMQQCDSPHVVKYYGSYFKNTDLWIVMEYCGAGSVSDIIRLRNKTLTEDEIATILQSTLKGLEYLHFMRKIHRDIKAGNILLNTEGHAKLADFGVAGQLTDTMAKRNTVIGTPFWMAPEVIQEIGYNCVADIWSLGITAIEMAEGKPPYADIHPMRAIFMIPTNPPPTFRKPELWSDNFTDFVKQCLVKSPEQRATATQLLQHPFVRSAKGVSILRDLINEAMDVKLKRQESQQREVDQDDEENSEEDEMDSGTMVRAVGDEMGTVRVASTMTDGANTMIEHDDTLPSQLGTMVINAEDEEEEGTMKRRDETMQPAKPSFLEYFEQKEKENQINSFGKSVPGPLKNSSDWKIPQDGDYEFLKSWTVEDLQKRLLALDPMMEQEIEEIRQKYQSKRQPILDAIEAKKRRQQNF
POTE ankyrin domain family member E (Homo sapiens), sequence (Q6S8J3 whole entry, the tested form may be a part): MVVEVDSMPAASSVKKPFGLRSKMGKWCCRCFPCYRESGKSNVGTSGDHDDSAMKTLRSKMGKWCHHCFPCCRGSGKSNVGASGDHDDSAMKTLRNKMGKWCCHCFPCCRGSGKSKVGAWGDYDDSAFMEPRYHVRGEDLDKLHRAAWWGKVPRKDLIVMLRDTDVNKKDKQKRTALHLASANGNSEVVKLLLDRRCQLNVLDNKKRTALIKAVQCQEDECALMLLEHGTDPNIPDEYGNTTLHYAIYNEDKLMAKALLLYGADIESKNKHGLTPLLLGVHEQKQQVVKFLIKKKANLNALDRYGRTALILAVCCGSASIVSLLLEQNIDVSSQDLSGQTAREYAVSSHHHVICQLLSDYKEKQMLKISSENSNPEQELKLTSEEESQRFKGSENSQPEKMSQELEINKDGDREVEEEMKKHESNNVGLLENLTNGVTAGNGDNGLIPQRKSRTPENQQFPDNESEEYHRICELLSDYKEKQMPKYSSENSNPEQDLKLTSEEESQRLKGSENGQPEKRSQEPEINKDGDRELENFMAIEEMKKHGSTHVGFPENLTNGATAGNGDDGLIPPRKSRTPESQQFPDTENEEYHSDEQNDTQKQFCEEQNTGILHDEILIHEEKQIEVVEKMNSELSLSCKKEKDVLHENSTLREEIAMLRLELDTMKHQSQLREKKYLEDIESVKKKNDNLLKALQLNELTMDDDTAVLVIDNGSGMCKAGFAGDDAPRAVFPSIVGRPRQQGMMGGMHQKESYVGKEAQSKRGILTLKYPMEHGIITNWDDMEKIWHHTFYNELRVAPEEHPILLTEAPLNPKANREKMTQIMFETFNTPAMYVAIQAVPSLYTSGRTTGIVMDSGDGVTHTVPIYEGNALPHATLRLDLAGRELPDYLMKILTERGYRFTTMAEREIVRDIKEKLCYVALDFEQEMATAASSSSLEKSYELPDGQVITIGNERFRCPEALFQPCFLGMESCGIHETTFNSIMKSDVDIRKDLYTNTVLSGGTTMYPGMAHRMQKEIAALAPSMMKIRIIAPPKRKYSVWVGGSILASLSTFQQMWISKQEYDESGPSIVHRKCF
Moesin (Homo sapiens), sequence (P26038 whole entry): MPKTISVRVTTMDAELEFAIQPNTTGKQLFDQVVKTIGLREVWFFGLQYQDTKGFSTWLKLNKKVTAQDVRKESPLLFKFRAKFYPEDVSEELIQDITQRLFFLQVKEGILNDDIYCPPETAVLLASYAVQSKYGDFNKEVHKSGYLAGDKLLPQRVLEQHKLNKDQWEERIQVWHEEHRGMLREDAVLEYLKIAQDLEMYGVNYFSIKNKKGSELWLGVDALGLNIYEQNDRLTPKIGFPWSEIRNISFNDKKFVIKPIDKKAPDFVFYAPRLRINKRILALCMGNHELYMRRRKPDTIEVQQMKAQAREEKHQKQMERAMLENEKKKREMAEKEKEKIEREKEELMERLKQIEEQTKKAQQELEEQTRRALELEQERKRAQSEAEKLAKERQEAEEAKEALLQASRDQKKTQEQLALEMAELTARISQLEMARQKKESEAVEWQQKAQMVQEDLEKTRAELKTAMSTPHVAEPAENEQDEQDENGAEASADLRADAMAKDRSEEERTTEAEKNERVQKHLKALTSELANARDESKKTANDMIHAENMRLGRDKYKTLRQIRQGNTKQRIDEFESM
Alpha-enolase (Homo sapiens), sequence (P06733 whole entry): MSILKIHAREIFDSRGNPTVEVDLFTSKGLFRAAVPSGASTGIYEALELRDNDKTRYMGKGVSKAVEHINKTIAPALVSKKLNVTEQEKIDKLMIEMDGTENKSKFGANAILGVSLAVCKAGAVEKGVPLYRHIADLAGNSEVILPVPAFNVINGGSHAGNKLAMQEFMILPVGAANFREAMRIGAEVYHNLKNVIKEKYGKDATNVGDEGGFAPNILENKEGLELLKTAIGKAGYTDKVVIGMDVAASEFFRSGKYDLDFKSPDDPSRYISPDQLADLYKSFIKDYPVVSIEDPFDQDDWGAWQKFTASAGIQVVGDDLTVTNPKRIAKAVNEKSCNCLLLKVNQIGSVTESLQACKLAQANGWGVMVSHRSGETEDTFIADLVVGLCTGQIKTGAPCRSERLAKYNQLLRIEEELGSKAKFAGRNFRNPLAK
2,4-dienoyl-CoA reductase [(3E)-enoyl-CoA-producing], mitochondrial (Homo sapiens), sequence (Q16698 whole entry): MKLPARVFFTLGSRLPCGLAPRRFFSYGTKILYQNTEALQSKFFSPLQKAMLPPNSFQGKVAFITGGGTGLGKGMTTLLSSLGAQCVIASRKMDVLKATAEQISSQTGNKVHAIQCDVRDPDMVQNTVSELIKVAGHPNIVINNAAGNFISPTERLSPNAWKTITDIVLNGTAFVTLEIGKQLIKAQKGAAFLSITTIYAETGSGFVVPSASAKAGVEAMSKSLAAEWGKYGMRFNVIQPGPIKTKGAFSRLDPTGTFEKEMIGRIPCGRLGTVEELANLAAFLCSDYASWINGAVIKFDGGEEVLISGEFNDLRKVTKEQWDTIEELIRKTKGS

Cc1ccc(C(=O)Nc2cccc(C(F)(F)F)c2)cc1Nc1nc(-c2cccnc2)nc2c1cnn2C
ED50 [1]: 37.7 nM
ED50 [2]: 9000 nM
ED50 [3]: 38.3 nM
ED50 [4]: 5440 nM
ED50 [5]: 3550 nM
ED50 [6]: 68.3 nM
ED50 [7]: 85500 nM
ED50 [8]: 127 nM
ED50 [9]: 2260 nM
ED50 [10]: 3630 nM
ED50 [11]: 1740 nM
ED50 [12]: 4370 nM
ED50 [13]: 7400 nM
ED50 (Homo sapiens): 1290 nM
ED50 [14]: 11.2 nM
ED50 [15]: 4540 nM
ED50 [16]: 23100 nM
ED50 [17]: 32900 nM
ED50 [18]: 421 nM
ED50 [19]: 7180 nM
ED50 [20]: 10800 nM
ED50 (Moesin (Homo sapiens)): 10700 nM
ED50 (Myosin-9 (Homo sapiens)): 756 nM
ED50 [21]: 247 nM
ED50 [22]: 3950 nM
ED50 [23]: 11700 nM
ED50 [24]: 52.7 nM
ED50 [25]: 94200 nM
ED50 [26]: 3140 nM
ED50 [27]: 6410 nM
ED50 [28]: 130 nM
ED50 [29]: 25.1 nM
ED50 [30]: 13400 nM
ED50 [31]: 4820 nM
ED50 [32]: 2540 nM
ED50 [33]: 2190 nM
ED50 [34]: 2220 nM
ED50 [35]: 11900 nM
ED50 [36]: 12200 nM
ED50 [37]: 2730 nM
ED50 [38]: 5030 nM
ED50 [39]: 732000 nM
ED50 [40]: 56.2 nM
ED50 [41]: 3110 nM
ED50 [42]: 5.64 nM
ED50 [43]: 3.66 nM
ED50 [44]: 1840 nM

Cc1ccc(C(=O)Nc2cccc(C(F)(F)F)c2)cc1Nc1nc(-c2cccnc2)nc2nn(C)cc12
ED50 [1]: 72900 nM
ED50 [2]: 32.6 nM
ED50 [3]: 6470 nM
ED50 [4]: 677 nM
ED50 [5]: 8.71 nM
ED50 [6]: 3600 nM
ED50 [7]: 79200 nM
ED50 [8]: 652 nM
ED50 [9]: 3140 nM
ED50 [10]: 10500 nM
ED50 [11]: 53.8 nM
ED50 [12]: 53 nM
ED50 [13]: 169 nM
ED50 (Homo sapiens): 27.4 nM
ED50 [14]: 573 nM
ED50 [15]: 13.5 nM
ED50 [16]: 12700 nM
ED50 [17]: 1720 nM
ED50 [18]: 30.5 nM
ED50 [19]: 154000 nM
ED50 [20]: 311 nM
ED50 (Moesin (Homo sapiens)): 256 nM
ED50 (Myosin-9 (Homo sapiens)): 97.3 nM
ED50 [21]: 0.38 nM
ED50 [22]: 3980 nM
ED50 [23]: 2450 nM
ED50 [24]: 16.8 nM
ED50 [25]: 17500 nM
ED50 [26]: 14900 nM
ED50 [27]: 4740 nM
ED50 [28]: 38.8 nM
ED50 [29]: 18.9 nM
ED50 [30]: 356 nM
ED50 [31]: 2.61 nM
ED50 [32]: 186 nM
ED50 [33]: 122 nM
ED50 [34]: 1190 nM
ED50 [35]: 5.26 nM
ED50 [36]: 16000 nM
ED50 [37]: 49.8 nM
ED50 [38]: 2390 nM
ED50 [39]: 87.6 nM
ED50 [40]: 58.5 nM
ED50 [41]: 680 nM
ED50 [42]: 9370 nM
ED50 [43]: 593 nM
ED50 [44]: 4590 nM

Reference: ChEMBL document CHEMBL5649169 (ChemMedChem, 2018)
